Laboratory results as given in patent US5036055A, “Acylated derivatives of etoposide” (Bristol-Myers Company, priority 1989, dated 1991).
≈ marks a conversion by molar mass, not a printed value. Like-named read-outs stand apart in the source and are kept apart here.

Legend:
P388 leukemia = assay: in vivo antitumor activity against murine transplantable P388 leukemia; parameters: species or system murine (female CDF1 mice)
Method: Representative compounds of the present invention were evaluated for antitumor activity against murine transplantable P388 leukemia. Female CDF1 mice were inoculated intraperitoneally with 0.4 ml of diluted ascitic fluid containing 10^6 lymphocytic leukemia P388 cells. […] The percent increase of median survival time (MST) of treated animals over that of untreated control animals was determined and reported as % T/C. Compounds showing % T/C values of 125 or greater are considered to have significant antitumor activity. Table I presents the results of the in vivo evaluation; only the maximum % T/C and the dose giving the maximum effects are reported.

B16-F10 murine melanoma = assay: in vitro cytotoxicity against B16-F10 murine melanoma (neutral red, 540 nm); type: cell-based; details: Mus musculus, 72 hours incubation
Method: (§1) In vitro cytotoxicity of compounds of the present invention was evaluated against B16-F10 murine melanoma and Moser human colon carcinoma cell lines. Exponentially growing B16-F10 and Moser cells were harvested, counted and suspended in the culture medium at the concentrations of 1.5×10^4 and 3×10^4 cells/ml, respectively. Twenty-four hours after planting cell suspension (180 mcl) into wells of a 96-well microtiter plate, test materials (20 mcl) were added to the wells and the plates were incubated for 72 hours. The cytotoxic activities against the tumor cells were colorimetrically determined at 540 nm after staining viable cells with neutral red solution.

[1] = tested on: Moser human colon carcinoma; assay: in vitro cytotoxicity against Moser human colon carcinoma (neutral red, 540 nm); type: cell-based; details: 72 hours incubation
Method: as §1

[2] = Mus musculus, P388, ip, 1200 h, 30 mg/kg/day, i.p. single dose on day 1, maximum % T/C at dose giving maximum effect, CDF1 mice, 50 days, read-out: % T/C MST
[3] = Mus musculus, P388, ip, 1200 h, 120 mg/kg/day, i.p. single dose on day 1, maximum % T/C at dose giving maximum effect, CDF1 mice, 50 days, read-out: % T/C MST
[4] = 120 mg/kg/day, i.p. single dose on day 1, CDF1 mice
[5] = Mus musculus, P388, ip, 1200 h, read-out: % T/C MST

Compound | response vs control in vivo at 30 mg/kg (P388 leukemia; [2]) [%] | IC50 (B16-F10 murine melanoma) [µg/mL] | IC50 [1] [µg/mL] | response vs control in vivo at 120 mg/kg (P388 leukemia; [3]) [%] | also measured
COc1cc([C@@H]2c3cc4c(cc3[C@@H](O[C@@H]3O[C@@H]5CO[C@@H](C)O[C@H]5[C@H](OC(C)=O)[C@H]3O)[C@H]3COC(=O)[C@H]23)OCO4)cc(OC)c1O [Example 4, 3"-0-acetyl-etoposide] | 210 | 1.4 (≈ 2.22 µM) |  |  | 
COc1cc([C@@H]2c3cc4c(cc3[C@@H](O[C@@H]3O[C@@H]5CO[C@@H](C)O[C@H]5[C@H](O)[C@H]3OC(C)=O)[C@H]3COC(=O)[C@H]23)OCO4)cc(OC)c1O [Example 3, 2"-0-acetyl etoposide] | 240 | 1.6 (≈ 2.54 µM) | 1.1 (≈ 1.74 µM) |  | 
COc1cc([C@@H]2c3cc4c(cc3[C@@H](O[C@@H]3O[C@@H]5CO[C@@H](C)O[C@H]5[C@H](OC(C)=O)[C@H]3OC(C)=O)[C@H]3COC(=O)[C@H]23)OCO4)cc(OC)c1O [Example 1, 2",3"-di-0-acetyl etoposide] | 165 | 1.3 (≈ 1.93 µM) | < 0.8 |  | 
COc1cc([C@@H]2c3cc4c(cc3[C@@H](O[C@@H]3O[C@@H]5CO[C@@H](C)O[C@H]5[C@H](OC(=O)c5ccccc5)[C@H]3O)[C@H]3COC(=O)[C@H]23)OCO4)cc(OC)c1O [Example 9, 3"-0-Benzoyletoposide] |  | 0.17 (≈ 0.245 µM) | 0.83 (≈ 1.2 µM) |  | Number of survivors/tested on day 50 (P388 leukemia; 60 mg/kg/day, i.p. single dose on day 1, CDF1 mice): 1/4; response vs control in vivo at 60 mg/kg (P388 leukemia; Mus musculus, P388, ip, 1200 h, 60 mg/kg/day, i.p. single dose on day 1, maximum % T/C at dose giving maximum effect, CDF1 mice, 50 days, read-out: % T/C MST): 420%
COc1cc([C@@H]2c3cc4c(cc3[C@@H](O[C@@H]3O[C@@H]5CO[C@@H](C)O[C@H]5[C@H](O)[C@H]3OC(=O)c3ccccc3)[C@H]3COC(=O)[C@H]23)OCO4)cc(OC)c1O [Example 8, 2"-0-benzoyletoposide] |  | 0.92 (≈ 1.33 µM) |  | 145 | 
COc1cc([C@@H]2c3cc4c(cc3[C@@H](O[C@@H]3O[C@@H]5CO[C@@H](C)O[C@H]5[C@H](OC=O)[C@H]3OC=O)[C@H]3COC(=O)[C@H]23)OCO4)cc(OC)c1O [Example 6, 2",3"-di-0-formyl etoposide] |  | 2 (≈ 3.1 µM) | 0.84 (≈ 1.3 µM) | > 500 | Number of survivors/tested on day 50 (P388 leukemia; [4]): 3/4
COc1cc([C@@H]2c3cc4c(cc3[C@@H](O[C@@H]3O[C@@H]5CO[C@@H](C)O[C@H]5[C@H](OC(=O)c5ccccc5)[C@H]3OC(=O)c3ccccc3)[C@H]3COC(=O)[C@H]23)OCO4)cc(OC)c1O [Example 10, 2",3"-0-di-benzoyletoposide] |  | 4.4 (≈ 5.52 µM) |  | 125 | 
COc1cc([C@@H]2c3cc4c(cc3[C@@H](O[C@@H]3O[C@@H]5CO[C@@H](C)O[C@H]5[C@H](O)[C@H]3O)[C@H]3COC(=O)[C@H]23)OCO4)cc(OC)c1O [Etoposide, etoposide] |  | 0.45 (≈ 0.765 µM) |  |  | Number of survivors/tested on day 50 (P388 leukemia; [4]): 6/12; response vs control in vivo at 30 mg/kg (P388 leukemia; [5]): 182%; response vs control in vivo at 120 mg/kg (P388 leukemia; [5]): > 390%
